pIC50, pKi: −log10 of the molar value.
Columns and labels:
[1] = DRUGMATRIX: Serotonin (5-Hydroxytryptamine) 5-HT3 radioligand binding (ligand: [3H] GR-65630); format: cell membranes, Membrane; settings: hek293; Not Active = under 50% inhibition at 10 µM
[2] = molecular target: T1, Alpha-1A adrenergic receptor (Rattus norvegicus, UniProt P43140); assay: DRUGMATRIX: Alpha-1A adrenergic receptor radioligand binding (ligand: prazosin); format: cell membranes, Wistar, Submaxillary gland, Membrane; settings: Not Active = under 50% inhibition at 10 µM
T1 sequence (P43140 whole entry): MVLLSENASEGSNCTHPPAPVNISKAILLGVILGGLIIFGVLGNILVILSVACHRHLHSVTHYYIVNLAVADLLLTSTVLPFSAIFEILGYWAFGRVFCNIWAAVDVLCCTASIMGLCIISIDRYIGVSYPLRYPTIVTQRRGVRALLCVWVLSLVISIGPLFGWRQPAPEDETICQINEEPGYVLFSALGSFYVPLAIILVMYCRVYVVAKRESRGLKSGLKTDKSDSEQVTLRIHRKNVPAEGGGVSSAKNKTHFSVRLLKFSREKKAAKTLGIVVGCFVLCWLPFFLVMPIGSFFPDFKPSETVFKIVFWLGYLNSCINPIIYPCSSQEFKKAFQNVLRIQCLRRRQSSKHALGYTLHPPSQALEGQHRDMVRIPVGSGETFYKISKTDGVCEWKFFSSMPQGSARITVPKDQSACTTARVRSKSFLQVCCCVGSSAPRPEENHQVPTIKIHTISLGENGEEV

[3] = molecular target: Protein kinase C alpha type (Homo sapiens, UniProt P17252); format: cell-based; settings: sf9;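 also: inhibition of PKCalpha kinase activity measured in an enzyme assay with histone as the phosphorylation substrate; in other assays of this panel Not Active means under 50% inhibition at 10 µM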
[4] = DRUGMATRIX: Sigma2 radioligand binding (ligand: [3H] Ifenprodil); format: cell membranes, Rattus norvegicus, Wistar, Brain, Membrane; settings: Not Active = under 50% inhibition at 10 µM
D(4) dopamine receptor = molecular target: T2, D(4) dopamine receptor (Homo sapiens, UniProt P21917); assay: DRUGMATRIX: Dopamine D4.2 radioligand binding (ligand: [3H] Spiperone); format: cell membranes, CHO-K1, Membrane; settings: cho-k1; Not Active = under 50% inhibition at 10 µM
T2 sequence (P21917 whole entry): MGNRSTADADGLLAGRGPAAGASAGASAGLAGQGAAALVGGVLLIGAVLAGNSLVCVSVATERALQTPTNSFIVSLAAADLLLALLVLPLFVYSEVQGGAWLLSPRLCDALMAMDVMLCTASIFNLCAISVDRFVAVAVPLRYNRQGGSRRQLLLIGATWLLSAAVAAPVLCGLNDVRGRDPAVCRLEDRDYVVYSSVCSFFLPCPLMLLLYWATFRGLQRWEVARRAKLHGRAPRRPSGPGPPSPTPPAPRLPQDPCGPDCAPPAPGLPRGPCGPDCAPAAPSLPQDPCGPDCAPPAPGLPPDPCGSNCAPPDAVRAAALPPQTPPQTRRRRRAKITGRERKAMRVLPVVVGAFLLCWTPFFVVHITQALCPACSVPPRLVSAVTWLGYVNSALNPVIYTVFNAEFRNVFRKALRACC

[5] = molecular target: Beta-2 adrenergic receptor (Homo sapiens, UniProt P07550); assay: DRUGMATRIX: Adrenergic beta2 radioligand binding (ligand: [3H] CGP-12177); format: cell membranes, CHO, Membrane; settings: Not Active = under 50% inhibition at 10 µM; for IC50: cho
[6] = molecular target: Vascular endothelial growth factor receptor 1 (Homo sapiens, UniProt P17948); format: cell-based; settings: huvec; also: in other assays of this panel Not Active means under 50% inhibition at 10 µM
Chain of Vascular endothelial growth factor receptor 1 (P17948 whole entry): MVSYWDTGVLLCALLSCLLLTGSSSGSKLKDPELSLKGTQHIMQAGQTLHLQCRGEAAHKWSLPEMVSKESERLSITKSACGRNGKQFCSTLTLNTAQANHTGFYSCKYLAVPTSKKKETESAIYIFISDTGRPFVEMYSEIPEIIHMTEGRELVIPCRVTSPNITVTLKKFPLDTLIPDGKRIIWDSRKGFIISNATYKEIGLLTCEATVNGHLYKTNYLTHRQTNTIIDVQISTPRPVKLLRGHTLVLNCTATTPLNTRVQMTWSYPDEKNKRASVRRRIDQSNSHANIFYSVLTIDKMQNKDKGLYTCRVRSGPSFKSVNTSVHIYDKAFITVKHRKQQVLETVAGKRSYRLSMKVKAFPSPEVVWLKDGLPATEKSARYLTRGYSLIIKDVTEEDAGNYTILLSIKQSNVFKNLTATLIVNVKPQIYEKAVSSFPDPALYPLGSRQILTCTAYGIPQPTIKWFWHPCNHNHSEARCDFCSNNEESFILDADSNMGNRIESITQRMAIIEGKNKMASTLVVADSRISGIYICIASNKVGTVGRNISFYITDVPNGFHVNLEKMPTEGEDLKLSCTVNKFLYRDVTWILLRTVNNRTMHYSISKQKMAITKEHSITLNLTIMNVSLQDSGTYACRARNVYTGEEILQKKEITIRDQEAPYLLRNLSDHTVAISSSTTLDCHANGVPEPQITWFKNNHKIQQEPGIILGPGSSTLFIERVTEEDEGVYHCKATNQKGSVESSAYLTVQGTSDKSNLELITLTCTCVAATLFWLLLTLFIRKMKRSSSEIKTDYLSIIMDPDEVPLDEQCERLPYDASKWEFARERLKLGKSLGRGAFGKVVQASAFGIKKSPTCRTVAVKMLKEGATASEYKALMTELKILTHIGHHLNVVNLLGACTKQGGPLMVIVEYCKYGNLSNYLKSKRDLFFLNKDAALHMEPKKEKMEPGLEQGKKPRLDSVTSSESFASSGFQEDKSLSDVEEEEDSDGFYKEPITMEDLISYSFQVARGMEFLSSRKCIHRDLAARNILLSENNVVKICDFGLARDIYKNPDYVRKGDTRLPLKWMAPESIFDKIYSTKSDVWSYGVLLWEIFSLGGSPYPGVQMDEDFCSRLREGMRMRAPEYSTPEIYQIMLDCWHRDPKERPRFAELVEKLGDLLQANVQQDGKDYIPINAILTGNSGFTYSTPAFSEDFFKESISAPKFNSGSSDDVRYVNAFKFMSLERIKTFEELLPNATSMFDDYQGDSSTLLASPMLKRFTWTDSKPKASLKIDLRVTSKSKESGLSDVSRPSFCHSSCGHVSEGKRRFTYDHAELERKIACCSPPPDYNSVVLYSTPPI

Chain of Beta-2 adrenergic receptor (P07550 whole entry): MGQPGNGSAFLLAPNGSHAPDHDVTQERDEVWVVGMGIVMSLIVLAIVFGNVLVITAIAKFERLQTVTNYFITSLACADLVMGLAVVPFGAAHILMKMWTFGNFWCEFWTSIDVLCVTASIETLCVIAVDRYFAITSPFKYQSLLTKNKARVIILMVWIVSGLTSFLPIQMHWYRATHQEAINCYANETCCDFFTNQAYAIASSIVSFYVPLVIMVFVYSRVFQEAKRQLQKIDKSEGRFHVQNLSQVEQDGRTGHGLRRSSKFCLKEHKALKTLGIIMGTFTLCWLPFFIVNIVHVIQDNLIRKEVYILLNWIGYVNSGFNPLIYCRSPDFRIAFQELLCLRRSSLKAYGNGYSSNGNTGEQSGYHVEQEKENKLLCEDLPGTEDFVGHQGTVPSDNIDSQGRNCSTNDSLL

| Compound | IC50 [1] | Ki [1] | IC50 [2] | IC50 [3] | IC50 [4] | Ki [4] | IC50 (D(4) dopamine receptor) | IC50 [5] | IC50 [6] | pIC50 ([5]; read-out: IC50) | pKi ([5]; read-out: Ki) | pIC50 ([2]; read-out: IC50) | pKi ([2]; read-out: Ki) |
| --- | --- | --- | --- | --- | --- | --- | --- | --- | --- | --- | --- | --- | --- |
| NS(=O)(=O)c1cc(C2(O)NC(=O)c3ccccc32)ccc1Cl (configuration not stated) [CHLORTHALIDONE] | Not Active | Not Active | Not Active | Not Active | Not Active | Not Active | Not Active | Not Active | Not Active |  |  |  |  |
| O=C(O)CC(O)(CC(=O)O)C(=O)O [CITRIC ACID] | Not Active | Not Active | Not Active | Not Active | Not Active | Not Active | Not Active | Not Active | Not Active |  |  |  |  |
| CC(C)NCC(O)c1ccccc1Cl (configuration not stated) [CLORPRENALINE] | Not Active | Not Active | Not Active | Not Active | Not Active | Not Active | Not Active |  | Not Active | 5.70 | 5.86 |  |  |
| CN1CCN(C(c2ccccc2)c2ccccc2)CC1 [CYCLIZINE] | Not Active | Not Active | Not Active | Not Active | Not Active | Not Active | Not Active | Not Active | Not Active |  |  |  |  |
| CN1C[C@@H]2C[C@H]1CN2c1cc2c(cc1F)c(=O)c(C(=O)O)cn2C1CC1 [DANOFLOXACIN] | Not Active | Not Active | Not Active | Not Active | Not Active | Not Active | Not Active | Not Active | Not Active |  |  |  |  |
| COc1cccc2c1C(=O)c1c(O)c3c(c(O)c1C2=O)C[C@@](O)(C(C)=O)C[C@@H]3O[C@H]1C[C@H](N)[C@H](O)[C@H](C)O1 [DAUNORUBICIN] | Not Active | Not Active | Not Active | Not Active | Not Active | Not Active | Not Active | Not Active | Not Active |  |  |  |  |
| O=C(O)c1cc(-c2ccc(F)cc2F)ccc1O [DIFLUNISAL] | Not Active | Not Active | Not Active | Not Active | Not Active | Not Active | Not Active | Not Active | Not Active |  |  |  |  |
| C[S+](C)[O-] [DIMETHYL SULFOXIDE] | Not Active | Not Active | Not Active | Not Active | Not Active | Not Active | Not Active | Not Active | Not Active |  |  |  |  |
| CC1=NN(c2ccccc2)C(=O)C1 [EDARAVONE] | Not Active | Not Active | Not Active | Not Active | Not Active | Not Active | Not Active | Not Active | Not Active |  |  |  |  |
| CC(C)C[C@H]1C(=O)N2CCC[C@H]2[C@]2(O)O[C@](NC(=O)[C@@H]3C=C4c5cccc6[nH]cc(c56)C[C@H]4N(C)C3)(C(C)C)C(=O)N12 [ERGOCRYPTINE] | Not Active | Not Active |  | Not Active | Not Active | Not Active | Not Active | Not Active | Not Active |  |  | 7.96 | 8.37 |
| C[C@]12CC[C@@H]3c4ccc(O)cc4CC[C@H]3[C@@H]1C[C@@H](O)[C@@H]2O [ESTRIOL] | Not Active | Not Active | Not Active | Not Active | Not Active | Not Active | Not Active | Not Active | Not Active |  |  |  |  |
| C#C[C@]1(O)CC[C@H]2[C@@H]3CCC4=CC(=O)CC[C@]4(C)[C@H]3CC[C@@]21C [ETHISTERONE] | Not Active | Not Active | Not Active | Not Active | Not Active | Not Active | Not Active | Not Active | Not Active |  |  |  |  |
| CC(O)(P(=O)(O)O)P(=O)(O)O [ETIDRONIC ACID] | Not Active | Not Active | Not Active | Not Active | Not Active | Not Active | Not Active | Not Active | Not Active |  |  |  |  |
| CC(C)(C(=O)O)c1ccc(C(O)CCCN2CCC(C(O)(c3ccccc3)c3ccccc3)CC2)cc1 (configuration not stated) [FEXOFENADINE] | Not Active | Not Active | Not Active | Not Active | Not Active | Not Active | Not Active | Not Active | Not Active |  |  |  |  |
| CN1CCN(c2c(F)cc3c(=O)c(C(=O)O)cn(CCF)c3c2F)CC1 [FLEROXACIN] | Not Active | Not Active | Not Active | Not Active | Not Active | Not Active | Not Active | Not Active | Not Active |  |  |  |  |
| O=c1[nH]c(=O)n([C@H]2C[C@H](O)[C@@H](CO)O2)cc1F [FLOXURIDINE] | Not Active | Not Active | Not Active | Not Active | Not Active | Not Active | Not Active | Not Active | Not Active |  |  |  |  |
| COC(=O)Nc1nc2cc(C(=O)c3ccc(F)cc3)ccc2[nH]1 [FLUBENDAZOLE] | Not Active | Not Active | Not Active | Not Active | Not Active | Not Active | Not Active | Not Active | Not Active |  |  |  |  |
| CC(=O)OCC(=O)[C@@]1(O)CC[C@H]2[C@@H]3CCC4=CC(=O)CC[C@]4(C)[C@@]3(F)[C@@H](O)C[C@@]21C [FLUDROCORTISONE ACETATE] | Not Active | Not Active | Not Active | Not Active | Not Active | Not Active | Not Active | Not Active | Not Active |  |  |  |  |
| CCOC(=O)c1ncn2c1CN(C)C(=O)c1cc(F)ccc1-2 [FLUMAZENIL] | Not Active | Not Active | Not Active | Not Active | Not Active | Not Active | Not Active | Not Active | Not Active |  |  |  |  |
| CC(=O)OCC(=O)[C@@]12OC(C)(C)O[C@@H]1C[C@H]1[C@@H]3C[C@H](F)C4=CC(=O)C=C[C@]4(C)[C@@]3(F)[C@@H](O)C[C@@]12C [FLUOCINONIDE] | Not Active | Not Active | Not Active | Not Active | Not Active | Not Active | Not Active | Not Active | Not Active |  |  |  |  |
| O=C(O)P(=O)(O)O [FOSCARNET] | Not Active | Not Active | Not Active | Not Active | Not Active | Not Active | Not Active | Not Active | Not Active |  |  |  |  |
| Cc1ccc(C)c(OCCCC(C)(C)C(=O)O)c1 [GEMFIBROZIL] | Not Active | Not Active | Not Active | Not Active | Not Active | Not Active | Not Active | Not Active | Not Active |  |  |  |  |
| O=c1c(-c2ccc(O)cc2)coc2cc(O)cc(O)c12 [GENISTEIN] | Not Active | Not Active | Not Active | Not Active | Not Active | Not Active | Not Active | Not Active | Not Active |  |  |  |  |
| CCC1=C(C)CN(C(=O)NCCc2ccc(S(=O)(=O)NC(=O)N[C@H]3CC[C@H](C)CC3)cc2)C1=O [GLIMEPIRIDE] | Not Active | Not Active | Not Active | Not Active | Not Active | Not Active | Not Active | Not Active | Not Active |  |  |  |  |
| Nc1cc(-c2ccncc2)c[nH]c1=O [INAMRINONE] | Not Active | Not Active | Not Active | Not Active | Not Active | Not Active | Not Active | Not Active | Not Active |  |  |  |  |
